Laboratory results: ChEMBL document CHEMBL1201862, “PubChem BioAssay data set” (2004)
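1) Cells in 96-well plates. 2) Compound, 48 h, 5 concentrations. 3) Linear interpolation between surrounding doses. 4) Unreached endpoint = highest concentration. Abbreviation: GI50, concentration required for 50% inhibition of growth.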 Calls of active or inactive are those of the source. Rule as the data show it: active = GI50 up to about 1.1 µM and inactive = higher.

Legend:
Test in all cases: growth of human tumour cells (NCI), 48 h
[1] = test system: OVCAR-3
[2] = test system: A549
[3] = test system: Hs-578T
[4] = test system: ACHN
[5] = test system: OVCAR-5
[6] = test system: SK-MEL-5
[7] = test system: MOLT-4
[8] = test system: SNB-19
[9] = test system: UACC-62
[10] = test system: HCC 2998
[11] = test system: SF-268
[12] = test system: CCRF-CEM
[13] = test system: NCI-H226
[14] = test system: EKVX
[15] = test system: HOP-92
[16] = test system: HT-29
[17] = test system: T47D
[18] = test system: IGROV-1
[19] = test system: SNB-75

| SMILES | GI50 [1] | GI50 [2] | GI50 [3] | GI50 [4] | GI50 [5] | GI50 [6] | GI50 [7] | GI50 [8] | GI50 [9] | GI50 [10] | GI50 [11] | GI50 [12] | GI50 [13] | GI50 [14] | GI50 [15] | GI50 [16] | GI50 [17] | GI50 [18] | GI50 [19] |
| --- | --- | --- | --- | --- | --- | --- | --- | --- | --- | --- | --- | --- | --- | --- | --- | --- | --- | --- | --- |
| CN(C)CCn1c2c(c3ccccc31)CCc1ccccc1-2 | 14.6 µM (inactive) | 15 µM (inactive) | 15.1 µM (inactive) | 16.3 µM (inactive) | 17.9 µM (inactive) | 6.1 µM (inactive) | 10.8 µM (inactive) | 16.3 µM (inactive) | 13 µM (inactive) | 0.569 µM (active) | 17.9 µM (inactive) | 18.7 µM (inactive) | 12.8 µM (inactive) | 17.4 µM (inactive) | 14 µM (inactive) | 8.99 µM (inactive) | 15.8 µM (inactive) | 10 µM (inactive) |  |
| C=C1CC2(CC(c3ccccc3OC)OC(c3ccccc3OC)C2)OC1=O (configuration not stated) | 1.87 µM (inactive) | 4.76 µM (inactive) | 2.02 µM (inactive) | 2.29 µM (inactive) | 7.46 µM (inactive) | 2.58 µM (inactive) | 2.07 µM (inactive) | 7.55 µM (inactive) | 2.18 µM (inactive) | 2.49 µM (inactive) | 2.55 µM (inactive) | 1.71 µM (inactive) | 8.41 µM (inactive) | 14.6 µM (inactive) | 1.64 µM (inactive) | 2.06 µM (inactive) | 1.72 µM (inactive) | 1.74 µM (inactive) | 2.59 µM (inactive) |
| c1sc(NC2=NCCO2)c2c1CCCC2 | > 100 µM (inactive) | > 100 µM (inactive) | > 100 µM (inactive) | > 100 µM (inactive) | > 100 µM (inactive) | > 100 µM (inactive) | 85.5 µM (inactive) | > 100 µM (inactive) | > 100 µM (inactive) | > 100 µM (inactive) |  | > 100 µM (inactive) | > 100 µM (inactive) | > 100 µM (inactive) | > 100 µM (inactive) | > 100 µM (inactive) | 88.1 µM (inactive) | > 100 µM (inactive) | > 100 µM (inactive) |
| CC(C)=C1C(=O)C[C@]2(C)C/C=C(\C)CC/C=C(\C)CC[C@@H]12 | 8.53 µM (inactive) | 14.1 µM (inactive) | 11 µM (inactive) | 9.02 µM (inactive) | 12.1 µM (inactive) | 8.38 µM (inactive) | 8.61 µM (inactive) | > 50 µM (inactive) | 7.74 µM (inactive) | 7.53 µM (inactive) | 8.93 µM (inactive) | 9.23 µM (inactive) | 8.69 µM (inactive) | 11.2 µM (inactive) | 9.53 µM (inactive) | 9.08 µM (inactive) | 14.9 µM (inactive) | 9.4 µM (inactive) | 9.66 µM (inactive) |
| O=S(=O)(Oc1ccc2oc3ccccc3c2c1-c1c(OS(=O)(=O)C(F)(F)F)ccc2oc3ccccc3c12)C(F)(F)F | > 100 µM (inactive) | > 100 µM (inactive) | > 100 µM (inactive) | > 100 µM (inactive) | > 100 µM (inactive) | > 100 µM (inactive) | > 100 µM (inactive) | > 100 µM (inactive) | > 100 µM (inactive) | > 100 µM (inactive) | > 100 µM (inactive) | > 100 µM (inactive) | > 100 µM (inactive) | > 100 µM (inactive) | > 100 µM (inactive) | > 100 µM (inactive) | > 100 µM (inactive) | > 100 µM (inactive) |  |
| COc1ccc(/N=N/C(=O)NC(Cc2ccccc2)C(=O)O)cc1 (configuration not stated) | > 100 µM (inactive) | > 100 µM (inactive) | > 100 µM (inactive) | > 100 µM (inactive) | > 100 µM (inactive) | > 100 µM (inactive) | > 100 µM (inactive) | > 100 µM (inactive) | 87.9 µM (inactive) | > 100 µM (inactive) | > 100 µM (inactive) | > 100 µM (inactive) | > 100 µM (inactive) | > 100 µM (inactive) | 28.2 µM (inactive) | > 100 µM (inactive) | > 100 µM (inactive) | > 100 µM (inactive) | > 100 µM (inactive) |
| COc1cc2c(NCCCCCO)ncnc2c(OC)c1OC | > 100 µM (inactive) | > 100 µM (inactive) | > 100 µM (inactive) | > 100 µM (inactive) | > 100 µM (inactive) | > 84.7 µM (inactive) | > 100 µM (inactive) | > 100 µM (inactive) | > 100 µM (inactive) | > 100 µM (inactive) | > 100 µM (inactive) | > 93.3 µM (inactive) | 43.9 µM (inactive) | > 100 µM (inactive) | 43.8 µM (inactive) | > 100 µM (inactive) | > 96.2 µM (inactive) | > 100 µM (inactive) | > 100 µM (inactive) |
| CC(c1ccccc1)n1c2ccccc2c2c(N)ncnc21 (configuration not stated) | 16.2 µM (inactive) | 21.6 µM (inactive) | 18 µM (inactive) | 11.7 µM (inactive) | 18.2 µM (inactive) | 19.5 µM (inactive) | 23 µM (inactive) | 16.5 µM (inactive) |  | 18.2 µM (inactive) | 21.1 µM (inactive) | 27.8 µM (inactive) |  | 10.8 µM (inactive) | 13.6 µM (inactive) | 17.3 µM (inactive) | 15.5 µM (inactive) | 18.9 µM (inactive) | 1.4 µM (inactive) |
